Where two headings read alike, the source gives them in different places.
How the values were obtained:
[1] = target: EZH2 (rPRC2) (Homo sapiens, UniProt Q15910); test: EZH2 assay: rPRC2, biotinylated oligonucleosomes, 3H SAM methyl transfer (FlashPlate scintillation); assay type: biochemical; conditions: biotinylated oligonucleosome substrate
[2] = test system: H3K27me3 mark in HeLa cells; test: H3K27me3 MSD Hela Assay; assay type: cell-based; conditions: read-out: H3K27me3_MSD_HeLa_ (EC50)
Method: Trypsinized HeLa cells were counted and diluted in 10% DMEM (Life Technologies, Cat. #10569) to 5000 cells/75 μL. Seventy-five […] of cells were place in each well of a 96-well flat-bottomed plate and incubated at 37° C. for 4 hours. Twenty-five μL of test compound (at various concentrations) was added to the cells and incubation continued at 37° C. for 96 hours. Media was then removed and the cells rinsed once with ice cold PBS. Forty μL of ice-cold MSD Buffer AT (10 mM HEPES, pH 7.9, 5 mM MgCl2, 0.25M sucrose, Benzonase (1:10000), 1% Triton X-100 supplemented with fresh 1× Protease Inhibitor cocktail and 1 mM 4-(2-Aminoethyl)benzenesulfonyl fluoride hydrochloride (AEBSF)) was added to each well and the plates placed on ice for 30 minutes. Ten μL of 5M NaCl was then added to each well and incubation on ice continued for another 15 minutes. The material in each well was suspended pipetting up and down and then transferred to a new 96 well plate. The emptied wells were rinsed with 150 uL ice-cold 20 mM Tris pH 7.5, 1 mM EDTA, 1 mM EGTA, supplemented with fresh 1× Protease Inhibitor cocktail and 1 mM AEBSF (“NO salt NO detergent buffer) and transferred to the respective wells in the new plate. Three hundred μL of NO Salt NO detergent buffer was then added to each well of lysates and the plates frozen at −80° C.
On the same day, an appropriate number of MSD standard bind 96-well plates were coated with 30 μL/well of total H3 capture antibody (Millipore. Cat #MAB3422) at 1 μg/mL concentration in PBS. The antibody solution was evenly distributed first by tapping gently on the sides of the plates and then by shaking the plates for a few minutes at 1000 rpm. Antibody coated plates were stored at 4° C. overnight.
The next day the lysates are thawed to RT. The antibody coated MSD plates are washed 3× with TBS-T (Tris-buffered saline (Fisher Scientific, Cat #BP2471-1)+0.2% Tween-20). One-hundred fifty μL of 5% Blocker A in TBS-T is added to each well. The wells are covered and shaken on a shaker at RT for one hour. The Blocker A step is repeated a second time. After removing the blocker, 25 μL of cell lysate is transferred into each antibody coated well. The plates are shaken for 2 hours at RT, the lysate removed and the plates again washed with Blocker A in TBS-T. Twenty-five μL of appropriate freshly prepared antibody mix (including both primary and secondary antibodies) is added to each well and the plates shaken for 1 hour at RT.
Both H3 antibodies were obtained from Cell Signalling (Cat #s 4499 and 9733). The goat anti-rabbit antibody was obtained from Meso-Scale Discovery (Cat #R32AB-1).
The antibody mix was then removed and the wells washed with Blocker A. One hundred-fifty μL of freshly prepared 1×MSD Read Buffer (Meso-Scale Discovery; Cat #R927C-2) was then added to each well and the plates read on a MSD Sector 2400 Plate Reader.
Data was analyzed using Assay Assistant (Constellation Pharmaceuticals In-house product) and Activity Base (IDBS Ltd, Surrey, UK) template. Data files were imported to Assay Assistant and assay conditions were specified. A unique Analysis ID was created and the data files exported to Activity Base. An analysis template was created on Activity Base to measure dose-dependent inhibition of H3K27me3 mark and cell viability respectively. Readout of DMSO wells were used to normalize the data. Resulting curves were fitted using Activity base software Model 205 (IDBS Ltd. Surrey, UK). The data was checked for quality, validated and integrated in excel format using SARview (IDBS Ltd, Surrey, UK).

[3] = target: Y641N EZH2 (Homo sapiens, UniProt Q15910, Y641N); test: Y641N EZH2 assay: as EZH2 assay, with reconstituted H3K27Me2 oligonucleosomes as substrate; assay type: biochemical
[4] = EZH2 IC50, wild-type EZH2 (rPRC2)
[5] = Y641N EZH2 IC50, Y641N mutant EZH2, H3K27Me2 oligonucleosome substrate
[6] = wild-type EZH2 (rPRC2), read-out: EZH2 IC50
[7] = Y641N mutant EZH2, H3K27Me2 oligonucleosome substrate, read-out: Y641N EZH2 IC50
[8] = Homo sapiens, HeLa cells, MSD, 96 hours

EZH2 (rPRC2), sequence (Q15910 whole entry): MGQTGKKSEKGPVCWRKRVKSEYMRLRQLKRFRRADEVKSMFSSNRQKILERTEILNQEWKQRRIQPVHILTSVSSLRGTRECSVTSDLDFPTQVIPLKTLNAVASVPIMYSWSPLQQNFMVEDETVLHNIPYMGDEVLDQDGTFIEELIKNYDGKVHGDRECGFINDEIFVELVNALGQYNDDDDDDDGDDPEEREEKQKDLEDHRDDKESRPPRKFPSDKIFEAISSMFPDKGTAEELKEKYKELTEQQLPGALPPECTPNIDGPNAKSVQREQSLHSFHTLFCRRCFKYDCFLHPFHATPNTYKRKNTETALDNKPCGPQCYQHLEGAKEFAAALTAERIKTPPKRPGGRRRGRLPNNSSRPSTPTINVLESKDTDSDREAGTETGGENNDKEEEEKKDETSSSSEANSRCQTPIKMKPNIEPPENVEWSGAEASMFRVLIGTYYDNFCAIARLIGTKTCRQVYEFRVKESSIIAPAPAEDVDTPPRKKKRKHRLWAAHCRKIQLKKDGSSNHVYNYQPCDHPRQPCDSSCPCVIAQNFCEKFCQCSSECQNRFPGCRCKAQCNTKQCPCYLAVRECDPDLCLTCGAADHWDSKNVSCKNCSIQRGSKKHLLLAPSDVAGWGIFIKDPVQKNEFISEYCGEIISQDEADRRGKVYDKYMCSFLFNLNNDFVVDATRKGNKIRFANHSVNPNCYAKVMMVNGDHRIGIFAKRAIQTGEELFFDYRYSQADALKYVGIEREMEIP
EZH2 (rPRC2), sequence (O75530 whole entry partner): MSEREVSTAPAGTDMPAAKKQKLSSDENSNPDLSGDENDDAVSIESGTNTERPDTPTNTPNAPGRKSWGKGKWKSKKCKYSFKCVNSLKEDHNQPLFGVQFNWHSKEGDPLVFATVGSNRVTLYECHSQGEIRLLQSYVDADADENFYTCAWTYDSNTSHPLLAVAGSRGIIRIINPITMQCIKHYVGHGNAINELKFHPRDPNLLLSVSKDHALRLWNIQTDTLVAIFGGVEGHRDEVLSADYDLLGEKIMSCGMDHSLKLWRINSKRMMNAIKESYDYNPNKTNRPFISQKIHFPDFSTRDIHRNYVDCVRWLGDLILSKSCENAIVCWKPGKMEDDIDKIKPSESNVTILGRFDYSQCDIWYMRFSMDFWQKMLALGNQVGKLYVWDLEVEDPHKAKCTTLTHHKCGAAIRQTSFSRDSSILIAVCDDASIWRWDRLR
EZH2 (rPRC2), sequence (Q15022 whole entry partner): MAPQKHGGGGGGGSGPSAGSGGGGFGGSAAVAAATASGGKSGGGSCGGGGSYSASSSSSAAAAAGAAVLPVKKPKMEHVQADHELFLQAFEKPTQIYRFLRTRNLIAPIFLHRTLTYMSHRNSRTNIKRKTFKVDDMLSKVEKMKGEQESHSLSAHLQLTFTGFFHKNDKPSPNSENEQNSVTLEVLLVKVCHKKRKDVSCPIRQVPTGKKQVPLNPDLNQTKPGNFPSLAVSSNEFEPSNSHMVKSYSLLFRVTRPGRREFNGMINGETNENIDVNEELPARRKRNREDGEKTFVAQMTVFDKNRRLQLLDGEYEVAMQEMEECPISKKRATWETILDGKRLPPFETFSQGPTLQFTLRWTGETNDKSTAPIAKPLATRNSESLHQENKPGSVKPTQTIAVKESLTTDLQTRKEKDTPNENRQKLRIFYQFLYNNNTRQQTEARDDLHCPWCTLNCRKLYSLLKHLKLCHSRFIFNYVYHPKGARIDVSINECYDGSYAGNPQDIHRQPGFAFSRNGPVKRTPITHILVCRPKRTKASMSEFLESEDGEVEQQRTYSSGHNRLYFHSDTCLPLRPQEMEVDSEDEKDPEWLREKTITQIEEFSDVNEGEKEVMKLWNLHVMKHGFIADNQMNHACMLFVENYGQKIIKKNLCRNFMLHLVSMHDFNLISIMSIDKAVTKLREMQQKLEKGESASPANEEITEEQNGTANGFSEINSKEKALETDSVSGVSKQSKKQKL
Y641N EZH2, sequence (Q15910 whole entry Y641N): as the sequence (Q15910 whole entry) above, with Y641N counted along it
Y641N EZH2, sequence (O75530 whole entry partner): as the sequence (O75530 whole entry partner) above
Y641N EZH2, sequence (Q15022 whole entry partner): as the sequence (Q15022 whole entry partner) above

Compound | IC50 [1, 4] [µM] | EC50 ([2]; Homo sapiens, HeLa, 96 h) [µM] | IC50 [3, 5] [µM] | IC50 [1, 6] [µM] | IC50 [3, 7] [µM] | EC50 [2, 8] [µM] | EC50 ([2]; HeLa cells, MSD, 96 hours) [µM]
COC[C@@H](C)n1c(C)c(C(=O)NCc2c(OC)cc(C)[nH]c2=O)c2cncnc21 [Compound 303, (R)-N-((4-methoxy-6-methyl-2-oxo-1,2-dihydropyridin-3-yl)methyl)-7-(1-methoxypropan-2-yl)-6-methyl-7H-pyrrolo[2,3-d]pyrimidine-5-carboxamide] | < 0.1 | 0.4 to 2 | 0.1 to 1 |  |  |  | 
Cc1cc(C)c(CNC(=O)c2c(C)n(C(C)c3ccc(F)cc3)c3ccccc23)c(=O)[nH]1 (racemic) [Compound 166, (±)-N-((4,6-dimethyl-2-oxo-1,2-dihydropyridin-3-yl)methyl)-1-(1-(4-fluorophenyl)ethyl)-2-methyl-1H-indole-3-carboxamide] | < 0.1 | 2 to 10 | 0.1 to 1 |  |  |  | 
COc1cc(C)[nH]c(=O)c1CNC(=O)c1c(C)n(C(C)c2ccccc2)c2cnccc12 (racemic) [Compound 243, (±)-N-((4-methoxy-6-methyl-2-oxo-1,2-dihydropyridin-3-yl)methyl)-2-methyl-1-(1-phenylethyl)-1H-pyrrolo[2,3-c]pyridine-3-carboxamide] | < 0.1 | 2 to 10 | 0.1 to 1 |  |  |  | 
COc1cc(C)[nH]c(=O)c1CNC(=O)c1c(C)n(C(C)c2cccc(C#N)c2)c2ncccc12 (racemic) [Compound 239, (±)-1-(1-(3-cyanophenyl)ethyl)-N-((4-methoxy-6-methyl-2-oxo-1,2-dihydropyridin-3-yl)methyl)-2-methyl-1H-pyrrolo[2,3-b]pyridine-3-carboxamide] | < 0.1 | 0.4 to 2 | < 0.1 |  |  |  | 
Cc1cc(C)c(CNC(=O)c2c(C)n(S(=O)(=O)c3ccccc3)c3ccccc23)c(O)n1 [Compound 145, N-((4,6-dimethyl-2-oxo-1,2-dihydropyridin-3-yl)methyl)-2-methyl-1-(phenylsulfonyl)-1H-indole-3-carboxamide] |  | 2 to 10 |  | < 0.1 | 0.1 to 1 |  | 
Cc1cc(C)c(CNC(=O)c2c(C)n(C(C)c3ccc(Cl)cc3)c3ccccc23)c(=O)[nH]1 (racemic) [Compound 170, (±)-1-(1-(4-chlorophenyl)ethyl)-N-((2-hydroxy-4,6-dimethylpyridin-3-yl)methyl)-2-methyl-1H-indole-3-carboxamide] | < 0.1 | 2 to 10 | 0.1 to 1 |  |  |  | 
Cc1cc(C)c(CNC(=O)c2c(C)n(C(C)Cn3cnc4ccccc43)c3ncccc23)c(=O)[nH]1 (racemic) [Compound 238, (±)-1-(1-(1H-benzo[d]imidazol-1-yl)propan-2-yl)-N-((4,6-dimethyl-2-oxo-1,2-dihydropyridin-3-yl)methyl)-2-methyl-1H-pyrrolo[2,3-b]pyridine-3-carboxamide] |  |  |  | 0.1 to 1 | 1 to 10 | 2 to 10 | 
COc1cc(C)[nH]c(=O)c1CNC(=O)c1c(C)n([C@H](C)[C@H](OC)C2CC2)c2ncccc12 (single isomer, unassigned) [Compound 286, 1-((1R or S, 2R or S)-1-cyclopropyl-1-methoxypropan-2-yl)-N-((4-methoxy-6-methyl-2-oxo-1,2-dihydropyridin-3-yl)methyl)-2-methyl-1H-pyrrolo[2,3-b]pyridine-3-carboxamide] | < 0.1 | 0.4 to 2 | 0.1 to 1 |  |  |  | 
COc1ccc2c(C(=O)NCc3c(OC)cc(C)[nH]c3=O)c(C)n(C(C)C3CCOCC3)c2c1 (single isomer, unassigned) [Compound 321, (R or S)-6-methoxy-N-((4-methoxy-6-methyl-2-oxo-1,2-dihydropyridin-3-yl)methyl)-2-methyl-(1-(tetrahydro-2H-pyran-4-yl)ethyl)-1 H-indole-3-carboxamide] | < 0.1 | < 0.4 | < 0.1 |  |  |  | 
COc1cc(C)[nH]c(=O)c1CNC(=O)c1c(C)n(C(C)C2CCN(C(=O)OC(C)(C)C)CC2)c2ccccc12 (single isomer, unassigned) [Compound 327, (R or S)-tert-butyl 4-(1-(3-((4-methoxy-6-methyl-2-oxo-1,2-dihydropyridin-3-yl)methylcarbamoyl)-2-methyl-1H-indol-1-yl)ethyl)piperidine-1-carboxylate] | < 0.1 | < 0.4 | < 0.1 |  |  |  | 
COc1cc(C)[nH]c(=O)c1CNC(=O)c1c(C)n(C(C)C2CCCNC2)c2ccccc12 (stereo not drawn) [Compound 315, N-((4-methoxy-6-methyl-2-oxo-1,2-dihydropyridin-3-yl)methyl)-2-methyl-1-(1-(piperidin-3-yl)ethyl)-1H-indole-3-carboxamide] | < 0.1 | > 10 | 0.1 to 1 |  |  |  | 
CCOCC(C)n1c(C)c(C(=O)NCc2c(OC)cc(C)[nH]c2=O)c2cccnc21 (racemic) [Compound 212, (±)-1-(1-ethoxypropan-2-yl)-N-((4-methoxy-6-methyl-2-oxo-1,2-dihydropyridin-3-yl)methyl)-2-methyl-1H-pyrrolo[2,3-b]pyridine-3-carboxamide] | < 0.1 | 0.4 to 2 | 0.1 to 1 |  |  |  | 
Cc1cc(C)c(CNC(=O)c2c(C)n(C(C)c3ccccc3)c3ncccc23)c(O)n1 (racemic) [Compound 146, N-((2-hydroxy-4,6-dimethylpyridin-3-yl)methyl)-2-methyl-1-(1-phenylethyl)-1H-pyrrolo[2,3-b]pyridine-3-carboxamide] | < 0.1 | 0.4 to 2 | 0.1 to 1 |  |  |  | 
Cc1cc(C)c(CNC(=O)c2c(C)n(C(C)c3ccccc3)c3ncccc23)c(=O)[nH]1 (single isomer, unassigned) [Compound 116, N-((4,6-dimethyl-2-oxo-1,2-dihydropyridin-3-yl)methyl)-2-methyl-1-(1-phenylethyl)-1H-pyrrolo[2,3-b]pyridine-3-carboxamide] | < 0.1 | 0.4 to 2 | 0.1 to 1 |  |  |  | 
Cc1cc(C)c(CNC(=O)c2c(C)n(C(C)CS(C)(=O)=O)c3ncccc23)c(=O)[nH]1 (racemic) [Compound 250, (±)-N-((4,6-dimethyl-2-oxo-1,2-dihydropyridin-3-yl)methyl)-2-methyl-1-(1-(methylsulfonyl)propan-2-yl)-1H-pyrrolo[2,3-b]pyridine-3-carboxamide] |  |  |  | < 0.1 | 0.1 to 1 | 2 to 10 | 
N-((4-methoxy-6-methyl-2-oxo-1,2-dihydropyridin-3-yl)methyl)-2-methyl-1-(1-(1-(methylsulfonyl)piperidin-3-yl)ethyl)-1H-indole-3-carboxamide [Compound 320] |  |  |  | < 0.1 | < 0.1 |  | 0.4 to 2
COC(C)C(C)n1c(C)c(C(=O)NCc2c(C)cc(C)[nH]c2=O)c2cccnc21 (stereo not drawn) [Compound 241, N-((4,6-dimethyl-2-oxo-1,2-dihydropyridin-3-yl)methyl)-1-(3-methoxybutan-2-yl)-2-methyl-1H-pyrrolo[2,3-b]pyridine-3-carboxamide] | < 0.1 | 0.4 to 2 | 0.1 to 1 |  |  |  | 
